The text below walks through data of patent US20220003751A1, “METHOD FOR […] OF COLCHICINE-I[…]” (ASSISTANCE PUBLIQUE - HÔPITAUX DE PARIS, priority 2019, published 2022).

Each structure is given as a SMILES string.

Data set [1] is described as follows: mortality rate by supposed ingested dose in colchicine overdose. It is filed as in vivo, human. Here is the method: Although the dose ingested has an influence on the clinical picture, it is not, by itself, enough to allow prediction of the death of the patient. Indeed, the mortality rate in the three groups of supposed ingested dose equal to or less than 0.35 mg/kg, >0.35—equal or less than 0.7, and >0.7 were 0 (0%), 6/33 (18%), and 12/36 (33%) (Fisher's exact test: p<0.0001). The relation of mortality rate to the dose is statistically highly significant albeit being weak. Therefore, from a clinical viewpoint, other parameters reflecting the effects of the dose should be considered to define the likelihood of death in colchicine overdose.

The conditions of data set [2]: cited from earlier work.

For the compound `COc1cc2c(c(OC)c1OC)-c1ccc(OC)c(=O)cc1[C@@H](NC(C)=O)CC2` [colchicine, Colchicine], the mortality rate is 33% in data set [1] (supposed ingested dose >0.7 mg/kg, 12/36); 18% in data set [1] (supposed ingested dose >0.35 to equal or less than 0.7 mg/kg, 6/33); 0% in data set [1] (supposed ingested dose equal to or less than 0.35 mg/kg). For the same compound, in data set [2], the “acute dose presumed to be fatal” value was “about 0.8 mg/kg”.
